Assay [1] concerns the target Cyclin-dependent kinase 12 (Homo sapiens, UniProt Q9NYV4).
The target in assay [2] is MAP kinase-activated protein kinase 2 (Homo sapiens, UniProt P49137).
For assay [3], the target named is T1, Serine/threonine-protein kinase ULK1 (Homo sapiens, UniProt O75385).
T1 sequence (O75385 whole entry): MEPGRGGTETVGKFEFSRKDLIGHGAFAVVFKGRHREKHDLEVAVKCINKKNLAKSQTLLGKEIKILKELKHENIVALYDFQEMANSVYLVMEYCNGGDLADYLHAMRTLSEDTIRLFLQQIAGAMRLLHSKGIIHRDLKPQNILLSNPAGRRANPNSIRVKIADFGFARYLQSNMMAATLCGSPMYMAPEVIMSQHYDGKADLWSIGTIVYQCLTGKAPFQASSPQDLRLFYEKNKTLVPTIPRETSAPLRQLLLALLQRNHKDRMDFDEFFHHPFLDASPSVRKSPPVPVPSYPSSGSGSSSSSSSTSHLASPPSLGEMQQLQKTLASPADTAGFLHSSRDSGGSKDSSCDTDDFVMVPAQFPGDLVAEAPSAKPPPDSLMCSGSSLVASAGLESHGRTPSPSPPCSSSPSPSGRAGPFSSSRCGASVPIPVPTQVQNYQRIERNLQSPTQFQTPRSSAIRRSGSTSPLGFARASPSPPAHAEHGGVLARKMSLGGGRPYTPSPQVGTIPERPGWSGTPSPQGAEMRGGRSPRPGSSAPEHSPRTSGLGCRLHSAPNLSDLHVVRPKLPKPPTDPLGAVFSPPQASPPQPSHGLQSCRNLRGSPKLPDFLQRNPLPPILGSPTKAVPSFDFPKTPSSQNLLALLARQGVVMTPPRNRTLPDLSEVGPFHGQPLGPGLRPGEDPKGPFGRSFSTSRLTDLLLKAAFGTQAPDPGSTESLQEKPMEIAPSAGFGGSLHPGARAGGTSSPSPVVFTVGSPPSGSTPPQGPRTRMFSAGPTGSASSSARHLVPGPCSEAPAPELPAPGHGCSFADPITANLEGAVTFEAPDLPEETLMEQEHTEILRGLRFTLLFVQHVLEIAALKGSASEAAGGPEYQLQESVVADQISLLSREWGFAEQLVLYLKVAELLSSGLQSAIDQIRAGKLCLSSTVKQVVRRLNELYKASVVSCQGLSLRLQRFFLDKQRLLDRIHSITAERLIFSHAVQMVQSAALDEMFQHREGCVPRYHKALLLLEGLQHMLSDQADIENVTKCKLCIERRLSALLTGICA

Assay [4] concerns the target Receptor-interacting serine/threonine-protein kinase 2 (Homo sapiens, UniProt O43353).
For assay [5], the target named is T2, RNA cytidine acetyltransferase (Homo sapiens, UniProt Q9H0A0).
T2 sequence (Q9H0A0 whole entry): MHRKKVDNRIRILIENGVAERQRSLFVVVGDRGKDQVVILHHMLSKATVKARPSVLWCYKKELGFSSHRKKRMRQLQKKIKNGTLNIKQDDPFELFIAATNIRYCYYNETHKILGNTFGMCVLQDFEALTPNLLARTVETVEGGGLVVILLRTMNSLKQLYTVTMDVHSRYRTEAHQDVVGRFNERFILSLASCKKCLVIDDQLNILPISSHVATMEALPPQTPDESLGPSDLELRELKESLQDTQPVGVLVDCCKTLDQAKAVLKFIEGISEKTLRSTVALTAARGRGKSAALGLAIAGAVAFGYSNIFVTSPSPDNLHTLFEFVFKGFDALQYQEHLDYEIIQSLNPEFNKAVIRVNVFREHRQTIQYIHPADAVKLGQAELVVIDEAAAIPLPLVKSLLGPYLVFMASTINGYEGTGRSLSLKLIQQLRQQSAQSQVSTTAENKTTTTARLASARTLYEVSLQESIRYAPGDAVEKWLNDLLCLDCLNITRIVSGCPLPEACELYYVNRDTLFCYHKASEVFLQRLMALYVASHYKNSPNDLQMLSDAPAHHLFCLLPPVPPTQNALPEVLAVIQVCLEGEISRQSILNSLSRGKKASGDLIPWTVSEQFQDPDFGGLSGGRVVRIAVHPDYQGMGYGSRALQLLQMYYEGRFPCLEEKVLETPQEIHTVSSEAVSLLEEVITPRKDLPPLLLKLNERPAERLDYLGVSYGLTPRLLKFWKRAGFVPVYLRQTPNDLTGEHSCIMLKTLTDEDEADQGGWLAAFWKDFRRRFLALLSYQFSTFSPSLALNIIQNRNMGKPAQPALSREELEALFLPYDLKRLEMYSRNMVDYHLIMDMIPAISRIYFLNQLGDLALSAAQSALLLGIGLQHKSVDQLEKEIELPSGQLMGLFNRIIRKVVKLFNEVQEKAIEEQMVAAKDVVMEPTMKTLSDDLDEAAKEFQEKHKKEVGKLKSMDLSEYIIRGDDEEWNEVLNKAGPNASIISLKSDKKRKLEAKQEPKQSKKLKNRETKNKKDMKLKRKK

The target in assay [6] is MAP/microtubule affinity-regulating kinase 3 (Homo sapiens, UniProt P27448).

The results in this text go back to ChEMBL document CHEMBL3991601, “The target landscape of clinical kinase drugs” (Science, 2017).

The structures appear in SMILES notation. The source made the active and inactive calls. Cut-off read from the data, not from the text of the source, for most assays here: actives have a measured Kd and inactives only a lower limit. Where only a bound is given, the exact number is not on record here.

A word on the Kd: it is the concentration at which binding is half-saturated.
Note: in the data inactive means no Kd found up to 30 µM.

Chain of MAP/microtubule affinity-regulating kinase 3 (P27448 whole entry): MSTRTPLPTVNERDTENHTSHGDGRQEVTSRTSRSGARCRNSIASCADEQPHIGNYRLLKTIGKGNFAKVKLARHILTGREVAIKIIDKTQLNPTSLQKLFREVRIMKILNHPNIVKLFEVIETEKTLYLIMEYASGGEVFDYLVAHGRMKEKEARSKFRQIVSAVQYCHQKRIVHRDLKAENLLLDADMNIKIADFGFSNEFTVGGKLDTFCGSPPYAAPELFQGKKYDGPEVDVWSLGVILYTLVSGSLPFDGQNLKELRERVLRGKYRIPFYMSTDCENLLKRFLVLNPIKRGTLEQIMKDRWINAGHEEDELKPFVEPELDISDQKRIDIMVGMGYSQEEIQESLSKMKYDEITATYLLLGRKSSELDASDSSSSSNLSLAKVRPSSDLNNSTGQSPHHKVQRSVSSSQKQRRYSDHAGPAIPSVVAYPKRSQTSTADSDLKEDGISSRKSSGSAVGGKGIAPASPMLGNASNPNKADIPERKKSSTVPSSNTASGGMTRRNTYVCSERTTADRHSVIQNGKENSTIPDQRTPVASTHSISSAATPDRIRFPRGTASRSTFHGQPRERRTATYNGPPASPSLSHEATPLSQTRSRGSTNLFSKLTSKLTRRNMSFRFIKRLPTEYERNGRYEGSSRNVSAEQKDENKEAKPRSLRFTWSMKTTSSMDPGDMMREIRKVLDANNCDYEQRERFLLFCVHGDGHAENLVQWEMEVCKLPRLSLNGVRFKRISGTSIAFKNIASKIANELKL
Chain of Receptor-interacting serine/threonine-protein kinase 2 (O43353 whole entry): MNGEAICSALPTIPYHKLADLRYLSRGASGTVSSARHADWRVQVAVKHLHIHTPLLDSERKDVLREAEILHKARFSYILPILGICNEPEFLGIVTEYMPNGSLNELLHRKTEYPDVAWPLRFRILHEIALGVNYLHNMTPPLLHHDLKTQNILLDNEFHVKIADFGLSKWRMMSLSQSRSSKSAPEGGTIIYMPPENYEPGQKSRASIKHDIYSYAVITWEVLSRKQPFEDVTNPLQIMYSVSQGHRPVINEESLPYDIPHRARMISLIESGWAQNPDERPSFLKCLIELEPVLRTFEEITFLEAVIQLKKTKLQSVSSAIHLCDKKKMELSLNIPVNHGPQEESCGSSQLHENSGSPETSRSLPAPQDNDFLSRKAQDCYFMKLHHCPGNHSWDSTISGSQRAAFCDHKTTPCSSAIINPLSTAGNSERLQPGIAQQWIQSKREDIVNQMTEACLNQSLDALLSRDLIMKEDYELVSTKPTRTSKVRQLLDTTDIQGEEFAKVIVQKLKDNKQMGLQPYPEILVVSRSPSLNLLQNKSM
Chain of Cyclin-dependent kinase 12 (Q9NYV4 whole entry): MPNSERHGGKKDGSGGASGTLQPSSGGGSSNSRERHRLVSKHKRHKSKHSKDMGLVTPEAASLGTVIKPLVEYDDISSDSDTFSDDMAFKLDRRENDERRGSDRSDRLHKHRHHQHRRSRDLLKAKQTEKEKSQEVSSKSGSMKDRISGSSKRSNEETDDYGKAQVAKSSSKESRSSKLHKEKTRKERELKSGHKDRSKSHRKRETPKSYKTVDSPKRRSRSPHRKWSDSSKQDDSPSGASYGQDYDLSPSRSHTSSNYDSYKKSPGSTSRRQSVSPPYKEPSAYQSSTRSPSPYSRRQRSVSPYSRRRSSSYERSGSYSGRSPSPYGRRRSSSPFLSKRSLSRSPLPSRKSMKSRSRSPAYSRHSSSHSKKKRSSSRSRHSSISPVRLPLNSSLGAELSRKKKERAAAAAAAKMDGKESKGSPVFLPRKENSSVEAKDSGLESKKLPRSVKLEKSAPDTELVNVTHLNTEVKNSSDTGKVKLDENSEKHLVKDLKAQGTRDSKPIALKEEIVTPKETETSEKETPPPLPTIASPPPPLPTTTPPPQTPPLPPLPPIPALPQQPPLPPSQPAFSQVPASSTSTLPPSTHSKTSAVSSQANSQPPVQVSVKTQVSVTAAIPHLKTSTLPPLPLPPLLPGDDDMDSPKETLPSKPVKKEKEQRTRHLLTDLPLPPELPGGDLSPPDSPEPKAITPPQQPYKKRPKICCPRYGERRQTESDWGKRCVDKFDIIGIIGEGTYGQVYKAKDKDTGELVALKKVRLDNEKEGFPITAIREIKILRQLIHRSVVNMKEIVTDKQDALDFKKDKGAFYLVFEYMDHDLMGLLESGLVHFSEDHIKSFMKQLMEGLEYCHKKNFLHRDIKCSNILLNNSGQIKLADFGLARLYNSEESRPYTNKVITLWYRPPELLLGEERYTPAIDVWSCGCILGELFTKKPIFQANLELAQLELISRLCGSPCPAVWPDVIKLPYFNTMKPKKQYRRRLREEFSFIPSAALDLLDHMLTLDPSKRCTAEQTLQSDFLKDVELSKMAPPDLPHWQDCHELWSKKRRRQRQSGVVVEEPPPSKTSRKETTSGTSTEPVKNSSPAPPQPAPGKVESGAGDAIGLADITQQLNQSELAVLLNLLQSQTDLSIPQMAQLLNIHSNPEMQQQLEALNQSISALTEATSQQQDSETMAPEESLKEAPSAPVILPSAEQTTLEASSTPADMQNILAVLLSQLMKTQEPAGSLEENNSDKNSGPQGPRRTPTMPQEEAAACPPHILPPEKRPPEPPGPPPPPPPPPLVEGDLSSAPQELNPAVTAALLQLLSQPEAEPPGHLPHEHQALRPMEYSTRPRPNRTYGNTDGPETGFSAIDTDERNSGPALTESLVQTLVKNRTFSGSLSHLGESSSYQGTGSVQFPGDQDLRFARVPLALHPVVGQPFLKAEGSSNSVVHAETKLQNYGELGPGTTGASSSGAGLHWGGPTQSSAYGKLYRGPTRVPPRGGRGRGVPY
Chain of MAP kinase-activated protein kinase 2 (P49137 whole entry): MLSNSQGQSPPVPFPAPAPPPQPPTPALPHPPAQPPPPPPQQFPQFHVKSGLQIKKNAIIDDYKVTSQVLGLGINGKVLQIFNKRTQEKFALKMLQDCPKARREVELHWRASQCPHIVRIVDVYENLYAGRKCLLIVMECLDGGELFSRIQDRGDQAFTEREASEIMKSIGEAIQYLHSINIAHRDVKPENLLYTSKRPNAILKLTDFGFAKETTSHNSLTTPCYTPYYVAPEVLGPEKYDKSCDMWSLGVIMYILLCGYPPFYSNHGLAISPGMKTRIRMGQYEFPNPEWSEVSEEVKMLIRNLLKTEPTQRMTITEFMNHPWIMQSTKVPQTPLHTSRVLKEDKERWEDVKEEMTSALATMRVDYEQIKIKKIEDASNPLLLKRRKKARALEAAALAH

On to `CCN(CCCOc1ccc2c(Nc3cc(CC(=O)Nc4cccc(F)c4)n[nH]3)ncnc2c1)CCOP(=O)(O)O` [BARASERTIB], for which the Kd is > 30 µM (inactive) in assay [1]; > 30 µM (inactive) in assay [2]; > 30 µM (inactive) in assay [3]; 1.85 µM (active) in assay [4]; > 30 µM (inactive) in assay [5].
Regarding `C=CCn1c(=O)c2cnc(Nc3ccc(N4CCN(C)CC4)cc3)nc2n1-c1cccc(C(C)(C)O)n1` [ADAVOSERTIB], the Kd in assay [1], in assay [2], in assay [3], in assay [4], in assay [6] and in assay [5] was > 30 µM (inactive) throughout.
`COc1cc2ncnc(Nc3ccc(F)c(Cl)c3)c2cc1NC(=O)/C=C/CN1CCCCC1` [DACOMITINIB ANHYDROUS]: the Kd in assay [1] was > 30 µM (inactive); in assay [2] it was > 30 µM (inactive); in assay [3] it was > 30 µM (inactive); in assay [4], 0.988 µM (active); in assay [6], > 30 µM (inactive); in assay [5], > 30 µM (inactive).
Regarding `COCCN1CCN(Cc2ccc(-c3n[nH]c4c3C(=O)c3c(NC(=O)NN5CCOCC5)cccc3-4)cc2)CC1` [RGB-286638], the Kd is 0.947 µM (active) in assay [1]; > 30 µM (inactive) in assay [2]; > 30 µM (inactive) in assay [3]; > 30 µM (inactive) in assay [4]; > 30 µM (inactive) in assay [6]; > 30 µM (inactive) in assay [5].
Turning to `O=C(NOC[C@H](O)CO)c1ccc(F)c(F)c1Nc1ccc(I)cc1F` [MIRDAMETINIB], the Kd in assay [1], in assay [2], in assay [3], in assay [4], in assay [6] and in assay [5] was > 30 µM (inactive) each time.
Consider `CNC(=O)c1cccc(-c2ccc3c(N4CCOC[C@@H]4C)nc(N4CCOC[C@@H]4C)nc3n2)c1` [VISTUSERTIB], for which the Kd in assay [1], in assay [2], in assay [3], in assay [4], in assay [6] and in assay [5] was > 30 µM (inactive) each time.
As to `COc1cc2nccc(Oc3ccc(NC(=O)C4(C(=O)Nc5ccc(F)cc5)CC4)cc3)c2cc1OC` [CABOZANTINIB], the Kd in assay [1] is > 30 µM (inactive); in assay [2], > 30 µM (inactive); in assay [3] it was > 30 µM (inactive); in assay [4], 0.767 µM (active); in assay [6], > 30 µM (inactive); in assay [5] it was > 30 µM (inactive).
For `Cc1cc(Nc2nc(N[C@@H](C)c3ncc(F)cn3)ncc2Cl)n[nH]1` [AZD-1480], the Kd in assay [1], in assay [2], in assay [3], in assay [4], in assay [6] and in assay [5] was > 30 µM (inactive) throughout.
For `O=C(Nc1ccc(OC(F)(F)F)cc1)c1sccc1NCc1ccnc2ccccc12` [OSI-930], the Kd in assay [1], in assay [2], in assay [3], in assay [4], in assay [6] and in assay [5] was > 30 µM (inactive) throughout.
For `COc1cc2c(N3CCN(C(=O)Nc4ccc(OC(C)C)cc4)CC3)ncnc2cc1OCCCN1CCCCC1` [TANDUTINIB], the Kd in assay [1] and in assay [5] was > 30 µM (inactive) in each case.
On to `COc1cc2c(Oc3ccc4[nH]c(C)cc4c3F)ncnc2cc1OCCCN1CCCC1` [CEDIRANIB], for which the Kd in assay [1] and in assay [5] was > 30 µM (inactive) in each case.
`Cn1cnc2c(F)c(Nc3ccc(Br)cc3Cl)c(C(=O)NOCCO)cc21` [SELUMETINIB]: the Kd in assay [1] and in assay [5] was > 30 µM (inactive) in each case.
As for `CN(C)C/C=C/C(=O)Nc1cc2c(Nc3ccc(F)c(Cl)c3)ncnc2cc1O[C@H]1CCOC1` [AFATINIB], the Kd in assay [1] and in assay [5] was > 30 µM (inactive) throughout.
For `CN(c1ncccc1CNc1nc(Nc2ccc3c(c2)CC(=O)N3)ncc1C(F)(F)F)S(C)(=O)=O` [PF-00562271], the Kd in assay [1], in assay [3], in assay [4] and in assay [5] was > 30 µM (inactive) in each case.
As for `CC(C)(O)CC(=O)NCCn1ccc2ncnc(Nc3ccc(Oc4cccc(C(F)(F)F)c4)c(Cl)c3)c21` [TAK-285], the Kd in assay [1], in assay [2], in assay [6] and in assay [5] was > 30 µM (inactive) each time.
Consider `CC1(C)CNc2cc(NC(=O)c3cccnc3NCc3ccncc3)ccc21` [MOTESANIB], for which the Kd in assay [1] and in assay [5] was > 30 µM (inactive) each time.
Regarding `C[C@@]1(C(=O)Nc2ccc(F)nc2)CCCN1c1nc(Nc2cc(C3CC3)n[nH]2)c2cccn2n1` [BMS-754807], the Kd in assay [1] and in assay [5] was > 30 µM (inactive) throughout.
Regarding `O=S(=O)(c1cccc2cnccc12)N1CCCNCC1` [FASUDIL], the dissociation constant (Kd) in assay [1] was 3.48 µM (active); in assay [4] it was > 30 µM (inactive); in assay [6], > 30 µM (inactive); in assay [5] it was > 30 µM (inactive).
On to `N#CCNC(=O)c1ccc(-c2ccnc(Nc3ccc(N4CCOCC4)cc3)n2)cc1` [MOMELOTINIB], for which the Kd in assay [1], in assay [2], in assay [3], in assay [4] and in assay [5] was > 30 µM (inactive) each time.
`NC[C@@](O)(c1ccc(Cl)cc1)c1ccc(-c2cn[nH]c2)cc1` [AT-13148]: the Kd in assay [1], in assay [2], in assay [4], in assay [6] and in assay [5] was > 30 µM (inactive) each time.
Turning to `O=S(=O)(c1cccc2c(O)nccc12)N1CCCNCC1` [HYDROXYFASUDIL], the Kd is > 30 µM (inactive) in assay [1]; 23.3 µM (active) in assay [3]; > 30 µM (inactive) in assay [4]; > 30 µM (inactive) in assay [6]; > 30 µM (inactive) in assay [5].
For `C[C@]1(O)C[C@@H](c2nc(-c3ccc4ccc(-c5ccccc5)nc4c3)c3c(N)nccn32)C1` [LINSITINIB], the Kd in assay [1] is > 30 µM (inactive); in assay [3] it was > 30 µM (inactive); in assay [4], 1.36 µM (active); in assay [5], > 30 µM (inactive).
`Cn1c(=O)n(-c2ccc(C(C)(C)C#N)cc2)c2c3cc(-c4cnc5ccccc5c4)ccc3ncc21` [DACTOLISIB]: the Kd in assay [1], in assay [2], in assay [3], in assay [4] and in assay [5] was > 30 µM (inactive) throughout.
